Source: patent US7556938B1, “Nucleic acids encoding potassium channel interactors” (Millennium Pharmaceuticals, Inc., priority 1998, dated 2009)

How the values were obtained:
[1] = molecular target: T1, interaction between N-terminal domain of Kv4.3 and KChIP1 (Rattus norvegicus, UniProt Q62897+Q8R426); test: Biosensor (Biacore) in vitro binding of KChIP1 to GST-Kv4.3N with and without arachidonic acid; conditions: 10 μM arachidonic acid, 1 μM KChIP1
T1 construct: The intracellular N-terminal domain of Kv4.3 was expressed as a GST fusion protein (GST-Kv4.3N); GST (N, cleaved yes); made in house; host or cells: E. coli
T1 sequence (Q62897 1-182 limits assumed): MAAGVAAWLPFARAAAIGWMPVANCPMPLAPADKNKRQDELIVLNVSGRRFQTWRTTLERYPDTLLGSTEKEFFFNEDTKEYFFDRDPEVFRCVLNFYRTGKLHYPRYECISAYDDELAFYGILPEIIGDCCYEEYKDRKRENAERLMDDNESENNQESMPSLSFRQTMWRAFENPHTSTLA
T1 sequence (Q8R426 1-216 isoform Q8R426-2): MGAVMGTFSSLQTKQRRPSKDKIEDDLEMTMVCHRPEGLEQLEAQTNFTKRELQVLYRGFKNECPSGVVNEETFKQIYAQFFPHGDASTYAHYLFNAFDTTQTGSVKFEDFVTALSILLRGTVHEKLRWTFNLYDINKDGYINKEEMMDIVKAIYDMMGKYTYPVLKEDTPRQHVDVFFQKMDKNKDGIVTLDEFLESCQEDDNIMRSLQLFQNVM
From the text: The N-terminal domain of rat Kv4.3 was expressed as a GST fusion (GST-Kv4.3N) and purified from E. coli essentially following protocols provided by Amersham Pharmacia Biotech (Piscataway, N.J.). Recombinant rat KChIP1 protein was first expressed and purified as a GST-fusion, then the GST moiety was cleaved using PreScission protease (Amersham Pharmacia Biotech) to give rise to the free KChIP1 protein. Both GST-Kv4.3N and KChIP proteins were >95% pure as estimated by coomassie stain of denaturing gels. In vitro binding assays were performed using a Biacore 3000 from Biacore AB in Uppsala, Sweden. The experiments were performed in phosphate buffered saline (PBS), pH 7.4, with 1 mM CaCl2 and 0.05% polysorbate P-20. Anti-GST antibody (Biacore AB) was coupled to 3 flowcells of a CM-5 chip (Biacore AB) at a level of 2000 resonance units (RUs) using amine coupling. […]
To test the hypothesis that arachidonic acid acts by interfering with the binding between Kv4 and KChIPs, the surface plasmon resonance measurement (Biosensor) was first used to monitor the association and dissociation phases of Kv4-KChIP interaction in the presence and absence of arachidonic acid. The intracellular N-terminal domain of Kv4.3 was expressed as a GST fusion protein (GST-Kv4.3N) and immobilized to the surface of a Biosensor chip. […]

Kv4.3 = test: Fatty acid modulation of Kv4.3 current (Kv4.3 alone) in Xenopus oocytes; type: cell-based, rat
Protocol: Frogs underwent no more than two surgeries and surgeries were performed by well established techniques. Frogs were anesthetized with ice. Total cRNA (1-10 ng) was injected into stage IV Xenopus oocytes that were harvested the previous day. The Xenopus oocytes were incubated in ND96 containing (in mM) 96 NaCl, 2 KCl, 1.8 CaCl2, 1 MgCl2, 5 HEPES, pH 7.6, plus (Gentamycin 50 μg/ml) at 18° C. Xenopus oocytes were studied 3-7 days after injection. The two-electrode voltage-clamp recordings were performed in ND96 solution using a TURBO TEC 03 Clamp Amplifier (ALA Scientific Instruments, Westbury, N.Y.). Both electrodes were filled with 3 M KCl and had electrode resistances ranging from 0.2-1 MOhm. The current signals were filtered at 1000 Hz before transferred on a PC (Gateway, Calif.) using the PULSE software (HEKA, Germany). In this Example, the hypothesis that […] were the missing auxiliary subunits that accounted for the above kinetic discrepancy was investigated by expressing Kv4 alone or together with […] in both CHO cells and Xenopus oocytes, and measuring their inactivation time constants (using art known techniques as described in, for example, An et al. (2000) Nature 403:553-6; Keros, S. and […]. Neuroscience 17: 3476-87; and Villarroel, A. and […]. Neuroscience 16:2522-32). The effects of different concentrations of arachidonic acid on Kv4/KChIP current was studied in Xenopus oocytes. Because the physiological concentrations of arachidonic acid are often under 10 μM (Needleman, et al., 1986 Annu Rev Biochem 55:69-102; Anderson and Welsh, 1990, Proc Natl Acad Sci USA 87:7334-8; Meves, 1994, Prog Neurobiol 43:175-86), arachidonic acid was tested in the 1-10 μM range. […] Further, the slope of amplitude reduction as a function of increasing concentrations was very similar with or without the presence of […]. […] Villarroel and Schwarz, (1996) J.

[2] = tested on: A-current in cultured primary cerebellar granule neurons; test: Arachidonic acid effects on the A-current in cultured primary cerebellar granule neurons; type: cell-based; conditions: 10 μM arachidonic acid, TEA (10 mM) applied, mean±SEM
Protocol: The arachidonic acid effects on the A-current were also investigated in a neuronal system (cultured primary cerebellar granule neurons) where both Kv4 and KChIPs are present. TEA (10 mM) was applied to block a small sustained outward component. Inactivation time constants of the A current in the absence and presence of 10 μM arachidonic acid were 44±5 ms and 21±3 ms (mean±SEM), respectively. The corresponding peak amplitude was reduced from 2.0±0.6 nA to 1.2±0.4 nA.

CCCCC/C=C\C/C=C\C/C=C\C/C=C\CCCC(=O)O [arachidonic acid] was tested, and the “effect on association and dissociation phase of KChIP1 binding to GST-Kv4.3N” value [1] was “a qualitative difference aws not observed”, the “Inactivation time constant (ms ± SEM)” value (Kv4.3; Kv4.3 alone, 10 μM AA) was 66 ± 6 ms and the “Peak amplitude (μA ± SEM)” value (Kv4.3; Kv4.3 alone, 10 μM AA) was 13 ± 1 μA. For the same compound, the “block of Kv4.3 peak amplitude” value (Kv4.3; Kv4.3 alone, 10 μM fatty acid, vs no-fatty acid control) was “inhibited significantly”, the “block of Kv4.3 peak amplitude” value (Kv4.3; Kv4.3 alone, 1-10 μM arachidonic acid) was “concentration-dependent block” and the “effect on inactivation time constant” value (Kv4.3; absence of KChIP1, 1-10 μM arachidonic acid) was “unchanged at all arachidonic acid concentrations tested”. The “Inactivation time constant of the A current” value [2] was 21 ± 3 ms and the “peak amplitude of the A current” value [2] was 1.2±0.4 nA.
